ChEMBL document CHEMBL1201862, “PubChem BioAssay data set” (2004)
Calls of active or inactive are those of the source.

Assays:
[1] = growth suppression of PTEN-null colon cells, dose response, cell-based, HCT116 PTEN knockout (AID 1047); type: functional;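 further: HCT116 colon tumor cells with PTEN knocked out; cells exposed to compound for 60 hours before readout; potency for loss of cell viability measured by luminescence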
INS1 = assay: beta cell apoptosis inhibitors, cytokine rescue, dose response, luminescence, retest (AID 449756); type: functional, cell-based; conditions: Rattus norvegicus;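 further: cell death triggered by IL-1 beta plus TNF-alpha plus IFN-gamma mixture; protective hits raise ATP signal compared with cytokine alone wells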
[2] = microbe, parasite or virus in culture; type: functional; conditions: Mycobacterium tuberculosis
[3] = growth suppression of beta-catenin-knockout colon cells, dose response, cell-based, HCT116, human colon tumor (AID 1045); type: functional;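 further: HCT116 colon tumor cells with beta catenin knocked out; cells exposed to compound for 60 hours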
cells [4] = type: functional, cell-based
cells [5] = type: functional, cell-based; remark: listed apart in the source
[6] = molecular target: Voltage-dependent T-type calcium channel subunit alpha-1H (Homo sapiens, UniProt O95180); type: functional;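 further: channel activity triggered by adding a high calcium stimulation buffer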
Voltage-dependent T-type calcium channel subunit alpha-1H, sequence (O95180 whole entry): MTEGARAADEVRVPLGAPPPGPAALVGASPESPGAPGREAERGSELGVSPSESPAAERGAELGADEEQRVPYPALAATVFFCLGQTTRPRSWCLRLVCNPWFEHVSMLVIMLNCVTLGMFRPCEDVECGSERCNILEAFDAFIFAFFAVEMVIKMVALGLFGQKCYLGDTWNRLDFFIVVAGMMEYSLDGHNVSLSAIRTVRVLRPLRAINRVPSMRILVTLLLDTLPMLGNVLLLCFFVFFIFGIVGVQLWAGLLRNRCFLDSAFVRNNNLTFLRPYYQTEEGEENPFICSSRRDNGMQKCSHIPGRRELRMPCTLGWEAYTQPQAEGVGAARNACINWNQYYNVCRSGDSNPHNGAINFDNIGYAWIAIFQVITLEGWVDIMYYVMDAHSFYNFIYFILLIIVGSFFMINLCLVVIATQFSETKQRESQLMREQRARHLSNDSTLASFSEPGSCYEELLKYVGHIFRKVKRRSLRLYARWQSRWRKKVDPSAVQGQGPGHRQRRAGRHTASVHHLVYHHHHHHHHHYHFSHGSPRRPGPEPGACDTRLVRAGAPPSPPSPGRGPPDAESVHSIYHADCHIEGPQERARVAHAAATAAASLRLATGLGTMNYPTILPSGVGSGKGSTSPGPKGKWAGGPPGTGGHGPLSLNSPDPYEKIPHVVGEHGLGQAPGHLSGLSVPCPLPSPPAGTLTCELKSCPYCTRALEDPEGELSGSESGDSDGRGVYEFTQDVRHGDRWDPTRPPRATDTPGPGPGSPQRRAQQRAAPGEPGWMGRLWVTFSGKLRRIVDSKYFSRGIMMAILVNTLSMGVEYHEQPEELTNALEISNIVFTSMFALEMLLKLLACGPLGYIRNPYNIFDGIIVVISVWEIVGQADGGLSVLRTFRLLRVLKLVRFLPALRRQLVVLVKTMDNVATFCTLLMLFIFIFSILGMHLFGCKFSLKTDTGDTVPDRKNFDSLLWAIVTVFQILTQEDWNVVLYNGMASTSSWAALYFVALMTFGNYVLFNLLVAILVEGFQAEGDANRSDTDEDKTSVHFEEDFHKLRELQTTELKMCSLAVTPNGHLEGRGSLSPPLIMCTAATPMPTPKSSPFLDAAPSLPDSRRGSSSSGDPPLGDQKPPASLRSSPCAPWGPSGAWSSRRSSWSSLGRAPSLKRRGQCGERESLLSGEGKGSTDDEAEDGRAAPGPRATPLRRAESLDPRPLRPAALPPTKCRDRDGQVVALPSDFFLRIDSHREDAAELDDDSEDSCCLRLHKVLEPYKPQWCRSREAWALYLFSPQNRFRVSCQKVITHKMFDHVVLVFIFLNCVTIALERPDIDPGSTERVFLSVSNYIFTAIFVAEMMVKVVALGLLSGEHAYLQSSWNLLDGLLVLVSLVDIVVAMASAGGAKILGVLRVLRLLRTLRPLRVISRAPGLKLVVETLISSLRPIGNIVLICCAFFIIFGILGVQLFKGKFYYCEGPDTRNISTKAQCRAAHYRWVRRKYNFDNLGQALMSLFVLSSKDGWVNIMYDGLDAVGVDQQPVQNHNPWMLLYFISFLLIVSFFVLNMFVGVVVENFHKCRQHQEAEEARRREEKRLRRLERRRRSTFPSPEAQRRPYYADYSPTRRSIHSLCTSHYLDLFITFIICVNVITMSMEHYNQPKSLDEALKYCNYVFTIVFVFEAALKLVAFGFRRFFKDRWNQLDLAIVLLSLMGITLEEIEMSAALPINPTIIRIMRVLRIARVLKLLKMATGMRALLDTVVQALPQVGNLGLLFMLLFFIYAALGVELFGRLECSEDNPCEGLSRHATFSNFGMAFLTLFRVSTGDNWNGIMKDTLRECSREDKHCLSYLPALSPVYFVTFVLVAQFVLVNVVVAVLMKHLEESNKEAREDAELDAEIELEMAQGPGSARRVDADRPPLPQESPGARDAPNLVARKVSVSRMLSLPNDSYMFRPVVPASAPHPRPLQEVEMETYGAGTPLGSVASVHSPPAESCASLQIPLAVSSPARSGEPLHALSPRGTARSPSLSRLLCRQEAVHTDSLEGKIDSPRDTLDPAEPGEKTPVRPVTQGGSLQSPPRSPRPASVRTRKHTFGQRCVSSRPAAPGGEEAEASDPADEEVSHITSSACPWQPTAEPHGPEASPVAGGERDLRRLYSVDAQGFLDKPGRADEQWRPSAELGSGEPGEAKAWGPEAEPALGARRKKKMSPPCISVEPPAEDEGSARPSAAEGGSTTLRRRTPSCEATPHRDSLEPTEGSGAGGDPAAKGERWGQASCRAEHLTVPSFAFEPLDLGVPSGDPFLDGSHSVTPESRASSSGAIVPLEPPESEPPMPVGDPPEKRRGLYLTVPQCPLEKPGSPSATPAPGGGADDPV

Aminopeptidase N = molecular target: T1, Aminopeptidase N (Plasmodium falciparum FcB1/Columbia, UniProt O96935); assay: P. falciparum M1AAP inhibitors, biochemical, fluorogenic H-Leu-NHMec substrate, 1536-well (AID 1445); set-up: species or system Plasmodium falciparum 3D7, 3D7
T1 sequence (O96935 whole entry): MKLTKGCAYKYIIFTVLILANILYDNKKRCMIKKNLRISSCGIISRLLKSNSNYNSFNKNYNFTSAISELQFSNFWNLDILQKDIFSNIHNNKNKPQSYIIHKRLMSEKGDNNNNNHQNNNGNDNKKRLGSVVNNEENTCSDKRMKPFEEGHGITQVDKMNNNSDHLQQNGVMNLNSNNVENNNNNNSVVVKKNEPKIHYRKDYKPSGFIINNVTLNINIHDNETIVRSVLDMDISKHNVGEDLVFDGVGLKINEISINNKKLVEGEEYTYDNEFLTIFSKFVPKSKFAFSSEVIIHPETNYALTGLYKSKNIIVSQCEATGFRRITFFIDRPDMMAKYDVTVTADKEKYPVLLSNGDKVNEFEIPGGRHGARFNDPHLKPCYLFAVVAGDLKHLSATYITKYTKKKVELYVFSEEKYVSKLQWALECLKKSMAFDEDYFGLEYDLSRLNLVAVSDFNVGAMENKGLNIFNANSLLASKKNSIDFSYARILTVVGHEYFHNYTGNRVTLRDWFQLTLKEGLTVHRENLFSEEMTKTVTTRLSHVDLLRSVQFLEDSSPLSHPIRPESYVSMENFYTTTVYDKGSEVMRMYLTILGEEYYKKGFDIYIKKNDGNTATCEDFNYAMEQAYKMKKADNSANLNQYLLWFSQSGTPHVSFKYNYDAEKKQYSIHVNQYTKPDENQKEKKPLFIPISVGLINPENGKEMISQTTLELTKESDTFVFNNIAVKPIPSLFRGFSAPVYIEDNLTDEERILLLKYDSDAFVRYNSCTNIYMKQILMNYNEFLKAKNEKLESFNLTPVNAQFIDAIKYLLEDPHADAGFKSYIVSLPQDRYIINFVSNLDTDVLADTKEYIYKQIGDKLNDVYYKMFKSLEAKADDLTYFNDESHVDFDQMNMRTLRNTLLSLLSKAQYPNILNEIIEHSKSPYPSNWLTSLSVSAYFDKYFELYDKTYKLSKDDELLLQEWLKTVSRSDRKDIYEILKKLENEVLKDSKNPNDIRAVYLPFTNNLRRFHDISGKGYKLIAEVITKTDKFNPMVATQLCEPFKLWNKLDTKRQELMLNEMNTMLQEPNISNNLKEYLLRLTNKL

[7] = molecular target: FAD-linked sulfhydryl oxidase ALR (Homo sapiens, UniProt P55789); assay: inhibitors of human ALR sulfhydryl oxidase, dose response, biochemical, H2O2 detection, luminescence, cherry-pick (AID 493248)
FAD-linked sulfhydryl oxidase ALR, sequence (P55789 whole entry): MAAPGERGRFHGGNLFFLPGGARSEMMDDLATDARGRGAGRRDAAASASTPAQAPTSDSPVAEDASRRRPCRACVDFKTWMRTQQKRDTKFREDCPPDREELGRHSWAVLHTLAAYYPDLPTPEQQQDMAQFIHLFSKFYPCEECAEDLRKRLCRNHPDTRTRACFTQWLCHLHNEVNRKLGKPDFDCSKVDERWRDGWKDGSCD

[8] = inhibitors of intracellular T. cruzi replication, confirmation, NIH3T3 host cells, beta-gal luminescence (AID 2044); type: functional, cell-based;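 further: intracellular parasites grown in NIH/3T3 mouse fibroblasts as host cells; luminescent beta-galactosidase reporter signal from transgenic T. cruzi replicating inside host cells; inhibitors lower the luminescence signal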
[9] = cytotoxicity toward NIH3T3 fibroblasts, dose response, counter-screen, cell-based, ATP luminescence, mouse fibroblasts (AID 2010); type: functional;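 further: cells exposed to compound for about 90 hours before reading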
[10] = molecular target: T2, Heat shock factor protein 1 (Mus musculus, UniProt P38532); assay: HSF1 potentiators in luciferase reporter cells, confirmation, cell-based, NIH3T3, luminescence, dose retest (AID 435004); type: functional;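 further: stress induced by proteasome inhibitor MG132 added 30 min after compound; luciferase reporter driven by HSF1 response element in NIH3T3 cells; actives raise luminescence as potentiators of the MG132 stress response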
T2 sequence (P38532 whole entry): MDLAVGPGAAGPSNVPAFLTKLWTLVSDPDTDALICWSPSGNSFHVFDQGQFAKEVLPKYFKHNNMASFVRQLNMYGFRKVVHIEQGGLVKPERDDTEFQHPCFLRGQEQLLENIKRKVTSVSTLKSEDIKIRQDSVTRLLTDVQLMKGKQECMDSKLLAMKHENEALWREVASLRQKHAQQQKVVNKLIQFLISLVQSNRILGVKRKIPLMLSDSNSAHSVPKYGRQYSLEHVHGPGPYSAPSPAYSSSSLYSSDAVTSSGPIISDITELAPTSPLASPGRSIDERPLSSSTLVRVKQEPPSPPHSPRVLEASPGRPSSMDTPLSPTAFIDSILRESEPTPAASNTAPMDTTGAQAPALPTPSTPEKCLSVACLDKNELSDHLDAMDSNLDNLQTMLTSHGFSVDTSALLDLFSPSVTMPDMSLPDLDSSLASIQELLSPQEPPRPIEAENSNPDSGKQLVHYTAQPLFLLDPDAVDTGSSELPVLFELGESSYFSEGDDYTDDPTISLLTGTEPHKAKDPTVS

[11] = Luminescence Cell-Based Dose Retest to Confirm Inhibitors of Cancer Stem Cells. [Related pubchem assays (depositor defined):AID2717, AID2721]; type: functional, Homo sapiens; conditions: Homo sapiens
[12] = molecular target: T3, Calpain-2 catalytic subunit (Sus scrofa, UniProt P43367); assay: pig calpain II inhibitor potency, dose response, biochemical, fluorogenic peptide substrate (AID 1420); type: functional
T3 sequence (P43367 whole entry): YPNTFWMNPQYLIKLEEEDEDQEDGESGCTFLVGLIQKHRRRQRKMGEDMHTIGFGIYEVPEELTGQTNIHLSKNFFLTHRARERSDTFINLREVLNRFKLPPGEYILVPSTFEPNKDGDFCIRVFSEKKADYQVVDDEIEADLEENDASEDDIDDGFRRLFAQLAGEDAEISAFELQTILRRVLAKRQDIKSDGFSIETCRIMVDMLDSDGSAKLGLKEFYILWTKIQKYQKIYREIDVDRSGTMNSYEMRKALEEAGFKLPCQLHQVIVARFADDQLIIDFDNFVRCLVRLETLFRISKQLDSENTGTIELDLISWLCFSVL

[13] = cytotoxicity in OVCAR8 ovarian cancer cells, dose response, PAX8 project, cell-based, plate reader, dry powder samples (AID 743197); type: functional; conditions: OVCAR-8
Paired box protein Pax-8 = Paired box protein Pax-8 (Homo sapiens, UniProt Q06710); assay: inhibitors of PAX8-driven TPO luciferase reporter, dose response, RMG-I cells, cherry-pick (AID 687027); type: functional, cell-based;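 further: luciferase reporter driven by Pax8 target thyroperoxidase promoter measured by SteadyGlo luminescence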
Paired box protein Pax-8, sequence (Q06710 whole entry): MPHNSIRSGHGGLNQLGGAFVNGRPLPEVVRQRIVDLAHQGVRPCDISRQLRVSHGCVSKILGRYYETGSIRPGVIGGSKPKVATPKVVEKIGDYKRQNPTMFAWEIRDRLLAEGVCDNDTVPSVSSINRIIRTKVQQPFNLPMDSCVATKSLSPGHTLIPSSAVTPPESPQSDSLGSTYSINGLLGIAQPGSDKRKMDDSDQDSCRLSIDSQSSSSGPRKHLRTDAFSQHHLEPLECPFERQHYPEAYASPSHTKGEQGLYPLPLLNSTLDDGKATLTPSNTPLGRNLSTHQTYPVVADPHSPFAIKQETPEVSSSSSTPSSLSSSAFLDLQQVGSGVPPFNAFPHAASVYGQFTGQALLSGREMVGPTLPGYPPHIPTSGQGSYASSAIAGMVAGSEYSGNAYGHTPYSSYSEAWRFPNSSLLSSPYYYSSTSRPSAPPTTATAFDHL

[14] = NIH:OVCAR-3 ovarian cancer cell cytotoxicity, dose response, PAX8 inhibitor project, plate reader, dry powder samples (AID 743044); type: functional, cell-based
[15] = P. falciparum Dd2 growth inhibitors, dose response, SYBR Green, cherry-picked samples (AID 1159567); type: functional, cell-based

## Cc1nc(Nc2ccc(Cl)c(Cl)c2)sc1C(=O)Nc1ccccc1
[1]
  EC50: 19.8 µM (active)
INS1
  AC50: 7.01 µM (active)
[2]
  CC50: 27.2 µM (active)
[3]
  EC50: 21.9 µM (active)

## CC(=O)c1cccc(N(C(=O)c2ccccn2)C(C(=O)NC2CCCCC2)c2ccccc2)c1 (configuration not stated)
Cells [4]
  EC50: > 350 µM (not active)
Cells [5]
  EC50: > 350 µM (not active)

## O=S(=O)(Nc1nc2ccccc2nc1Nc1ccc2c(c1)OCCO2)c1cccs1
[6]
  EC50: 9.65 µM (active)

## COc1ccc(-c2cn3nc(SCC(=O)NCC4CCCO4)ccc3n2)cc1 (configuration not stated)
Cells [4]
  EC50: > 350 µM (not active)
Cells [5]
  EC50: 9.41 µM (active)

## CNNC(=O)C(C)NC(=O)c1ccc(Br)cc1 (configuration not stated)
Cells [4]
  EC50: > 350 µM (not active)
Cells [5]
  EC50: > 350 µM (not active)

## O=C(NC1CCN(Cc2ccccc2)CC1)c1cccc(S(=O)(=O)Nc2ccc(SC(F)F)cc2)c1
[2]
  CC50: 32.7 µM (active)

## CCCCc1cc(=O)oc2c(CN(CC)CC)c(O)c(Cl)cc12
Aminopeptidase N
  IC50: 41.5 µM (active)

## Cc1ccc(S(=O)(=O)NC2=NC(=O)/C(=C\c3ccco3)S2)cc1
Aminopeptidase N
  IC50: 94 µM (active)

## Cc1ccc(-c2nc(C[S+]([O-])CC(=O)NCc3ccc(Cl)cc3)c(C)o2)cc1 (configuration not stated)
[6]
  EC50: 2 µM (active)

## CN(CC(=O)Nc1ccc(F)c(F)c1F)C(=O)/C=C/c1ccc(Cl)cc1
Cells [4]
  EC50: > 350 µM (not active)
Cells [5]
  EC50: 155 µM (active)

## O=C(O)c1ccc(S(=O)(=O)Nc2ccc(O)c(Sc3nc4ccccc4s3)c2)cc1
Aminopeptidase N
  IC50: 104 µM (active)
[7]
  AC50: 0.236 µM (active)

## CCCOc1ccc(C(=O)c2nc3c(n2O)CCCCC3)cc1
[2]
  CC50: > 40 µM (active)

## Cc1ccc(C)c(CS(=O)(=O)c2cn(CC(=O)N3CCCCC3)c3ccccc23)c1
Aminopeptidase N
  IC50: 94.5 µM (active)

## Cc1nc(NCCc2ccccc2)c2oc3ccccc3c2n1
[2]
  CC50: 31.6 µM (active)

## Cc1nn(Cc2ccc(Cl)cc2Cl)c(C)c1NC(=O)c1ccc(COc2cc(Cl)ccc2Cl)o1
[8]
  EC50: 1.5 µM (active)
[9]
  EC50: > 60 µM (not active)
[6]
  EC50: 17.5 µM (active)

## O=C(NC(=S)Nc1cccc([N+](=O)[O-])c1)c1ccco1
Cells [4]
  EC50: > 350 µM (not active)
Cells [5]
  EC50: > 350 µM (not active)

## Cc1nc(CS(=O)(=O)c2ccc(Cl)cc2)cc(Sc2ccccc2Cl)n1
[6]
  EC50: 4.3 µM (active)

## CC(=O)N1CCN(c2ccc(Oc3ccc([N+](=O)[O-])c(C(F)(F)F)c3)cc2)CC1
INS1
  AC50: 5.74 µM (active)
[2]
  CC50: > 40 µM (active)

## O=C(Nc1ccn(Cc2ccccc2F)n1)c1ccc(COc2ccc(Cl)cc2Cl)o1
[6]
  EC50: 10.3 µM (active)
[10]
  EC50: 20.8 µM (active)
[11]
  AC50: 2.03 µM (active)

## COc1ccc(C(=O)NCCCOC(=O)c2ccc(OC)cc2)cc1
Cells [4]
  EC50: > 350 µM (not active)
Cells [5]
  EC50: > 350 µM (not active)

## O=C(CSc1nc(O)c2c(C(F)(F)F)cc(-c3cccs3)nc2n1)NCc1ccco1
Aminopeptidase N
  IC50: 103 µM (active)

## Cc1ccc(C)c(OCCCC(=O)Nc2nccs2)c1
[12]
  IC50: > 50 µM (not active)
[6]
  EC50: 3.06 µM (active)

## O=C(c1ccc(Cl)cc1Cl)N1CCN(c2ccc(N3CCOCC3)nn2)CC1
Cells [4]
  EC50: > 350 µM (not active)
Cells [5]
  EC50: > 350 µM (not active)

## CCn1c(COc2cccc(C)c2)nc2ccccc21
[6]
  EC50: 13 µM (active)

## O=C(O)c1ccccc1-c1nc(-c2ccccc2)c(-c2ccccc2)[nH]1
Aminopeptidase N
  IC50: 46.6 µM (active)

## O=C(/C=C/c1cccnc1)c1cccc(O)c1
[2]
  CC50: 15.6 µM (active)

## CC(=O)Nc1ccc(S(=O)(=O)Oc2cccc(/C=N/NC3=NC(=O)C(CC(=O)O)S3)c2)cc1 (configuration not stated)
Aminopeptidase N
  IC50: 52.8 µM (active)

## COc1ccc(/C=N/Nc2ncnc3sc4c(c23)CCCC4)cc1OC
Cells [4]
  EC50: > 350 µM (not active)
Cells [5]
  EC50: > 350 µM (not active)

## C[C@@H]1CCCCO[C@@H](CN(C)Cc2ccc(Cl)c(Cl)c2)[C@H](C)CN([C@H](C)CO)C(=O)c2cc(NS(=O)(=O)c3ccc(F)cc3)ccc2O1
[13]
  AC50: > 70 µM (inactive)
Paired box protein Pax-8
  AC50: 8.2 µM (active)

## C[C@@H]1CN([C@H](C)CO)C(=O)c2cc(NC(=O)Nc3ccccc3)ccc2O[C@@H](C)CCCCO[C@H]1CN(C)C(=O)Nc1ccc(C(F)(F)F)cc1
[13]
  AC50: > 70 µM (inactive)
[14]
  AC50: 46.2 µM (active)
Paired box protein Pax-8
  AC50: 10.8 µM (active)

## C[C@H](CO)N1C[C@H](C)[C@H](CN(C)S(=O)(=O)c2ccc(F)cc2)OCCCC[C@H](C)Oc2ccc(NC(=O)Nc3ccc(F)cc3)cc2C1=O
[13]
  AC50: > 70 µM (inactive)
Paired box protein Pax-8
  AC50: 7.09 µM (active)

## C[C@@H]1CN([C@H](C)CO)C(=O)c2cc(NC(=O)Nc3ccccc3)ccc2O[C@@H](C)CCCCO[C@@H]1CN(C)CC1CCCCC1
[13]
  AC50: 53.5 µM (active)
[14]
  AC50: 34.3 µM (active)
Paired box protein Pax-8
  AC50: 5.42 µM (active)

## CCOC(=O)CCCc1ccc(/C(C)=N/NC(N)=S)cc1
[2]
  CC50: > 40 µM (active)

## COc1cccc(C#Cc2ccc([C@@H]3[C@@H](C#N)N(C(=O)c4ccccn4)[C@H]3CO)cc2)c1
[15]
  AC50: 3.29 µM (active)

## C[C@@H]1CN([C@H](C)CO)C(=O)c2c(c3ccccc3n2C)-c2ccccc2CO[C@H]1CN(C)S(=O)(=O)c1ccsc1
[15]
  AC50: 4.22 µM (active)

## COc1ccc(C#Cc2ccc3c(c2)[C@@H]2[C@@H](CCN2C(=O)C2CCCC2)[C@H](CO)N3)cc1
[15]
  AC50: 3.97 µM (active)

## CCN1CCN(c2ncnc3ccc(Br)cc23)CC1
Cells [4]
  EC50: > 350 µM (not active)
Cells [5]
  EC50: > 350 µM (not active)
